Experiments:
[1] = test system: Asian sprangletop (LEPCH, Leptochloa chinensis); assay: Test A flooded greenhouse test, Asian sprangletop; format: in vivo; conditions: 14 d
From the text: (§1) Seeds of Asian sprangletop (LEPCH, Leptochloa chinensis), smallflower umbrella sedge (CYPDI, Cyperus difformis), monochoria (MOOVA, Monochoria vaginalis) and ducksalad (HETLI, Heteranthera limosa) were sown on the soil surface in four separate quadrants of 16-cm tubs filled with steam pasteurized Tama soil. Simultaneously, plantings of barnyardgrass (ECHCG, Echinochloa crus-galli), japonica rice (ORYSA, Oryza sativa) and late watergrass (ECHPH, Echinochloa phyllopogon) were established in separate “plug” flats. Plants were grown in a greenhouse using supplemental lighting to maintain a photoperiod of approximately 16 h; daytime and nighttime temperatures were approximately 27-30° C. and 24-27° C., respectively. After 8 d, barnyardgrass, rice and late watergrass plants were transplanted in 3 quadrants of separate tub, and the water level was adjusted to a final depth of 3 cm. Herbicide application of Cmpd. No. 1 and florpyrauxifen-benzyl (CAS Registry No. 1390661-72-9; 439.2 g/mol) timing was targeted at the 2.0 to 2.5 leaf stage and the plants were treated with test chemicals formulated in a non-phytotoxic solvent. Treated plants and controls were maintained in a greenhouse for 14 d, after which time all species were compared to controls and visually evaluated. Plant response ratings are summarized in Table A, and are based on a scale of 0 to 100 where 0 is no effect and 100 is complete control and is the mean of duplicate ratings. A dash (-) response means no test result.
(§2) Colby's Equation was used to determine the herbicidal effects expected from the mixtures. Colby's Equation (Colby, S. R. “Calculating Synergistic and Antagonistic Responses of Herbicide Combinations,” Weeds 1967 15(1), pp 20-22) calculates the expected additive effect of herbicidal mixtures and for two active ingredients is of the form: Pa+b=Pa+Pb−(PaPb/100) wherein Pa+b is the percentage effect of the mixture expected from additive contribution of the individual components: • Pa is the observed percentage effect of the first active ingredient at the same use rate as in the mixture, and • Pb is the observed percentage effect of the second active ingredient at the same use rate as in the mixture. The results and additive effects expected from Colby's Equation are listed in Table A. Application rates are grams of active ingredient per hectare (g a.i./ha). “Obsd.” is the observed effect and “Exp.” is expected effect calculated from Colby's Equation.

[2] = test system: late watergrass (ECHPH, Echinochloa phyllopogon); assay: Test A flooded greenhouse test, late watergrass; format: in vivo; conditions: 14 d
From the text: as §1, §2

[3] = test system: monochoria (MOOVA, Monochoria vaginalis); assay: Test A flooded greenhouse test, monochoria; format: in vivo; conditions: 14 d
From the text: as §1, §2

[4] = test system: barnyardgrass (ECHCG, Echinochloa crus-galli); assay: Test A flooded greenhouse test, barnyardgrass; format: in vivo; conditions: 14 d
From the text: as §1, §2

[5] = test system: japonica rice (ORYSA, Oryza sativa); assay: Test A flooded greenhouse test, japonica rice (crop); format: in vivo
From the text: as §1
Colby's Equation was used to determine the herbicidal effects expected from the mixtures. […] “Obsd.” is the observed effect and “Exp.” is expected effect calculated from Colby's Equation.

[6] = test system: smallflower umbrella sedge (CYPDI, Cyperus difformis); assay: Test A flooded greenhouse test, smallflower umbrella sedge; format: in vivo; conditions: 14 d
From the text: as §1, §2

[7] = test system: ducksalad (HETLI, Heteranthera limosa); assay: Test A flooded greenhouse test, ducksalad; format: in vivo; conditions: 14 d
From the text: as §1, §2

[8] = test system: ragweed (common ragweed, Ambrosia elatior); assay: Test B postemergence, ragweed; format: in vivo; conditions: approximately 10 d
From the text: (§3) Seeds of plant species selected from barnyardgrass (Echinochloa crus-galli), kochia (Kochia scoparia), ragweed (common ragweed, Ambrosia elatior), Ryegrass, Italian (Italian ryegrass, Lolium multiflorum), foxtail, green (green foxtail, Setaria viridis), and pigweed (Amaranthus retroflexus) were planted into a blend of loam soil and sand and treated preemergence with a directed soil spray using test chemicals formulated in a non-phytotoxic solvent mixture which included a surfactant.
(§4) At the same time, plants selected from these weed species and also wheat (Triticum aestivum), corn (Zea mays), blackgrass (Alopecurus myosuroides), and galium (catchweed bedstraw, Galium aparine) were planted in pots containing the same blend of loam soil and sand and treated with postemergence applications of test chemicals formulated in the same manner. Plants ranged in height from 2 to 10 cm and were in the one- to two-leaf stage for the postemergence treatment. Treated plants and untreated controls were maintained in a greenhouse for approximately 10 d, after which time all treated plants were compared to untreated controls and visually evaluated for injury. Plant response ratings, summarized in Table B, are based on a 0 to 100 scale where 0 is no effect and 100 is complete control. A dash (-) response means no test result.

kochia (Kochia scoparia) [9] = assay: Test B preemergence, kochia; format: in vivo; conditions: approximately 10 d
From the text: as §3, §4

[10] = test system: Ryegrass, Italian (Italian ryegrass, Lolium multiflorum); assay: Test B postemergence, Italian ryegrass; format: in vivo; conditions: approximately 10 d
From the text: as §3, §4

[11] = test system: blackgrass (Alopecurus myosuroides); assay: Test B postemergence, blackgrass; format: in vivo; conditions: approximately 10 d
From the text: as §3, §4

kochia (Kochia scoparia) [12] = assay: Test B postemergence, kochia; format: in vivo; conditions: approximately 10 d
From the text: as §3, §4

[13] = test system: foxtail, green (green foxtail, Setaria viridis); assay: Test B postemergence, green foxtail; format: in vivo; conditions: approximately 10 d
From the text: as §3, §4

corn (Zea mays) = assay: Test B postemergence, corn; format: in vivo; conditions: approximately 10 d
From the text: as §3, §4

[14] = test system: barnyardgrass (Echinochloa crus-galli); assay: Test B preemergence, barnyardgrass; format: in vivo; conditions: approximately 10 d
From the text: as §3, §4

[15] = test system: barnyardgrass (Echinochloa crus-galli); assay: Test B postemergence, barnyardgrass; format: in vivo; conditions: approximately 10 d
From the text: as §3, §4

rice (Oryza sativa) = conditions: in vivo
Method: (§5) Test C Plant species in the flooded paddy test selected from rice (Oryza sativa), sedge, umbrella (small-flower umbrella sedge, Cyperus difformis), ducksalad (Heteranthera limosa), and barnyardgrass (Echinochloa crus-galli) were grown to the 2-leaf stage for testing. At time of treatment, test pots were flooded to 3 cm above the soil surface, treated by application of test compounds directly to the paddy water, and then maintained at that water depth for the duration of the test. Treated plants and controls were maintained in a greenhouse for 13 to 15 d, after which time all species were compared to controls and visually evaluated. Plant response ratings, summarized in Table C, are based on a scale of 0 to 100 where 0 is no effect and 100 is complete control. A dash (-) response means no test result.

[16] = test system: ducksalad (Heteranthera limosa); assay: Test C flooded paddy test, ducksalad; format: in vivo; conditions: Flood; 250 g ai/ha; 13 to 15 d
Method: as §5

[17] = test system: galium (catchweed bedstraw, Galium aparine); assay: Test B postemergence, galium; format: in vivo; conditions: approximately 10 d
From the text: as §3, §4

[18] = test system: pigweed (Amaranthus retroflexus); assay: Test B preemergence, pigweed; format: in vivo; conditions: approximately 10 d
From the text: as §3, §4

[19] = test system: ragweed (common ragweed, Ambrosia elatior); assay: Test B preemergence, ragweed; format: in vivo; conditions: approximately 10 d
From the text: as §3, §4

[20] = test system: pigweed (Amaranthus retroflexus); assay: Test B postemergence, pigweed; format: in vivo; conditions: approximately 10 d
From the text: as §3, §4

[21] = test system: sedge, umbrella (small-flower umbrella sedge, Cyperus difformis); assay: Test C flooded paddy test, umbrella sedge; format: in vivo; conditions: Flood; 250 g ai/ha; 13 to 15 d
Method: as §5

[22] = test system: wheat (Triticum aestivum); assay: Test B postemergence, wheat; format: in vivo; conditions: approximately 10 d
From the text: as §3, §4

[23] = test system: foxtail, green (green foxtail, Setaria viridis); assay: Test B preemergence, green foxtail; format: in vivo; conditions: approximately 10 d
From the text: as §3, §4

[24] = test system: Ryegrass, Italian (Italian ryegrass, Lolium multiflorum); assay: Test B preemergence, Italian ryegrass; format: in vivo; conditions: approximately 10 d
From the text: as §3, §4

[25] = test system: barnyardgrass (Echinochloa crus-galli); assay: Test C flooded paddy test, barnyardgrass; format: in vivo; conditions: Flood; 250 g ai/ha; 13 to 15 d
Method: as §5

[26] = florpyrauxifen-benzyl 2 g a.i./ha alone
[27] = florpyrauxifen-benzyl 4 g a.i./ha alone

CN1C[C@H](c2cccc(C(F)(F)F)c2)[C@@H](C(=O)Nc2ccccc2F)C1=O [Cmpd. No. 1]
LEPCH Obsd. plant response rating (0 to 100) ([1]; Cmpd. No. 1 50 g a.i./ha alone): 75 | LEPCH Obsd. plant response rating (0 to 100) ([1]; Cmpd. No. 1 75 g a.i./ha alone): 85 | ECHPH Obsd. plant response rating (0 to 100) ([2]; Cmpd. No. 1 50 g a.i./ha alone): 75 | ECHPH Obsd. plant response rating (0 to 100) ([2]; Cmpd. No. 1 75 g a.i./ha alone): 85 | MOOVA Obsd. plant response rating (0 to 100) ([3]; Cmpd. No. 1 50 g a.i./ha alone): 70 | MOOVA Obsd. plant response rating (0 to 100) ([3]; Cmpd. No. 1 75 g a.i./ha alone): 70 | ECHCG Obsd. plant response rating (0 to 100) ([4]; Cmpd. No. 1 50 g a.i./ha alone): 70 | ECHCG Obsd. plant response rating (0 to 100) ([4]; Cmpd. No. 1 75 g a.i./ha alone): 70 | ORYSA Obsd. plant response rating (0 to 100) ([5]; in vivo): 0 | CYPDI Obsd. plant response rating (0 to 100) ([6]; Cmpd. No. 1 50 g a.i./ha alone): 0 | CYPDI Obsd. plant response rating (0 to 100) ([6]; Cmpd. No. 1 75 g a.i./ha alone): 0 | HETLI Obsd. plant response rating (0 to 100) ([7]; Cmpd. No. 1 50 g a.i./ha alone): 70 | HETLI Obsd. plant response rating (0 to 100) ([7]; Cmpd. No. 1 75 g a.i./ha alone): 70

Cc1cc([C@H]2CN(C)C(=O)[C@@H]2C(=O)Nc2cccc(F)c2F)cc(OC(F)F)n1 [Cmpd. No. 4]
Ragweed plant response rating (0 to 100) ([8]; 31 g ai/ha): 0 | Ragweed plant response rating (0 to 100) ([8]; 125 g ai/ha): 60 | Kochia plant response rating (0 to 100) (kochia (Kochia scoparia) [9]; 31 g ai/ha): 0 | Kochia plant response rating (0 to 100) (kochia (Kochia scoparia) [9]; 125 g ai/ha): 80 | Ryegrass, Italian plant response rating (0 to 100) ([10]; 31 g ai/ha): 30 | Ryegrass, Italian plant response rating (0 to 100) ([10]; 125 g ai/ha): 70 | Blackgrass plant response rating (0 to 100) ([11]; 31 g ai/ha): 60 | Blackgrass plant response rating (0 to 100) ([11]; 125 g ai/ha): 70 | Kochia plant response rating (0 to 100) (kochia (Kochia scoparia) [12]; 31 g ai/ha): 0 | Kochia plant response rating (0 to 100) (kochia (Kochia scoparia) [12]; 125 g ai/ha): 20 | Foxtail, Green plant response rating (0 to 100) ([13]; 31 g ai/ha): 70 | Foxtail, Green plant response rating (0 to 100) ([13]; 125 g ai/ha): 90 | Corn plant response rating (0 to 100) (corn (Zea mays); 31 g ai/ha): 60 | Corn plant response rating (0 to 100) (corn (Zea mays); 125 g ai/ha): 80 | Barnyardgrass plant response rating (0 to 100) ([14]; 31 g ai/ha): 100 | Barnyardgrass plant response rating (0 to 100) ([14]; 125 g ai/ha): 100 | Barnyardgrass plant response rating (0 to 100) ([15]; 31 g ai/ha): 80 | Barnyardgrass plant response rating (0 to 100) ([15]; 125 g ai/ha): 90 | Rice plant response rating (0 to 100) (rice (Oryza sativa)): 30 | Ducksalad plant response rating (0 to 100) [16]: 100 | Galium plant response rating (0 to 100) ([17]; 31 g ai/ha): 0 | Galium plant response rating (0 to 100) ([17]; 125 g ai/ha): 60 | Pigweed plant response rating (0 to 100) ([18]; 31 g ai/ha): 40 | Pigweed plant response rating (0 to 100) ([18]; 125 g ai/ha): 90 | Ragweed plant response rating (0 to 100) ([19]; 31 g ai/ha): 0 | Ragweed plant response rating (0 to 100) ([19]; 125 g ai/ha): 20 | Pigweed plant response rating (0 to 100) ([20]; 31 g ai/ha): 20 | Pigweed plant response rating (0 to 100) ([20]; 125 g ai/ha): 60 | Sedge, Umbrella plant response rating (0 to 100) [21]: 0 | Wheat plant response rating (0 to 100) ([22]; 31 g ai/ha): 40 | Wheat plant response rating (0 to 100) ([22]; 125 g ai/ha): 70 | Foxtail, Green plant response rating (0 to 100) ([23]; 31 g ai/ha): 100 | Foxtail, Green plant response rating (0 to 100) ([23]; 125 g ai/ha): 100 | Ryegrass, Italian plant response rating (0 to 100) ([24]; 31 g ai/ha): 30 | Ryegrass, Italian plant response rating (0 to 100) ([24]; 125 g ai/ha): 90 | Barnyardgrass plant response rating (0 to 100) [25]: 85

COc1c(Cl)ccc(-c2nc(C(=O)OCc3ccccc3)c(Cl)c(N)c2F)c1F [florpyrauxifen-benzyl, 2-pyridinecarboxylic acid, 4-amino-3-chloro-6-(4-chloro-2-fluoro-3-methoxyphenyl)-5-fluoro-, phenylmethyl ester, reference compound]
LEPCH Obsd. plant response rating (0 to 100) [1, 26]: 0 | LEPCH Obsd. plant response rating (0 to 100) [1, 27]: 0 | ECHPH Obsd. plant response rating (0 to 100) [2, 26]: 0 | ECHPH Obsd. plant response rating (0 to 100) [2, 27]: 0 | MOOVA Obsd. plant response rating (0 to 100) [3, 26]: 90 | MOOVA Obsd. plant response rating (0 to 100) [3, 27]: 100 | ECHCG Obsd. plant response rating (0 to 100) [4, 26]: 0 | ECHCG Obsd. plant response rating (0 to 100) [4, 27]: 0 | ORYSA Obsd. plant response rating (0 to 100) ([5]; florpyrauxifen-benzyl 2 g a.i./ha alone, 14 d): 0 | ORYSA Obsd. plant response rating (0 to 100) ([5]; florpyrauxifen-benzyl 4 g a.i./ha alone, 14 d): 0 | CYPDI Obsd. plant response rating (0 to 100) [6, 26]: 80 | CYPDI Obsd. plant response rating (0 to 100) [6, 27]: 85 | HETLI Obsd. plant response rating (0 to 100) [7, 26]: 90 | HETLI Obsd. plant response rating (0 to 100) [7, 27]: 100

Reference: US11919859B2, “Herbicidal mixture, composition and method” (FMC Corporation, priority 2017, dated 2024)
